Test [1] concerns MCF7. The test can be described thus: Cytotoxicity against human MCF7 cells assessed as reduction in cell viability after 72 hrs by MTT assay. Format: functional, cell-based. As to conditions: MCF7, 72 h.
For test [2], the system named is SK-BR-3. Description: Cytotoxicity against human SKBR3 cells assessed as reduction in cell viability after 72 hrs by MTT assay. Format: functional, cell-based. The conditions noted are these: SK-BR-3, 72 h.
Test [3] relates to MDA-MB-231. The test can be described thus: cells. The conditions noted are these: Homo sapiens, MDA-MB-231, 72 h.
Description: Cytotoxicity against human MDA-MB-231 cells assessed as reduction in cell viability after 72 hrs by MTT assay
Another test relates to MCF-10A. The test can be described thus: Cytotoxicity against human MCF10A after 72 hrs by MTT assay. The test is classed as cell-based. (Tetrazolium dyes change colour on reduction, which living cells bring about.)
For test [4], the system named is MDA-MB-231. The test can be described thus: Antiproliferative activity against human MDA-MB-231 cells at 50 uM after 72 hrs by MTT assay. Format: functional, cell-based.
The subject of test [5] is SK-BR-3. The test can be described thus: Antiproliferative activity against human SKBR3 cells at 50 uM after 72 hrs by MTT assay. Format: functional, cell-based.
For test [6], the system named is MCF7. Description: Antiproliferative activity against human MCF7 cells at 50 uM after 72 hrs by MTT assay. The test is classed as functional, cell-based.
Test [7] has as its system MCF7. The test can be described thus: Cell cycle arrest in human MCF7 cells assessed as accumulation at S phase at 10 uM after 24 hrs by propidium iodide-staining based FACS analysis (reference value: 22.6%). The test is classed as functional. For orientation: Flow cytometry measures light scatter and fluorescence of single cells or particles in a stream.
Test [8] deals with MCF7. The test can be described thus: Cell cycle arrest in human MCF7 cells assessed as accumulation at G0/G1 phase at 5 uM after 24 hrs by propidium iodide-staining based FACS analysis (reference value: 71.1%). Format: functional.
The test system of test [9] is MCF7. The test can be described thus: Cell cycle arrest in human MCF7 cells assessed as accumulation at G2/M phase at 10 uM after 24 hrs by propidium iodide-staining based FACS analysis (reference value: 6.3%). Format: functional.
Test [10] concerns MCF7. Description: Increase in p53 expression in human MCF7 cells at 1 to 10 uM after 24 hrs by immunoblot method. Format: functional, cell-based.
Test [11] relates to MCF7. Description: Increase in p21waf1/cip1 protein expression in human MCF7 cells at 1 to 10 uM after 24 hrs by immunoblot method. Format: functional, cell-based. (In general: In western blotting, separated proteins are transferred to a membrane and probed.)
The subject of test [12] is MCF7. Description: Change in cyclin D1 levels in human MCF7 cells at 1 to 10 uM after 24 hrs by Western blot analysis. Format: functional, cell-based.
Test [13] deals with MCF7. The test can be described thus: Cell cycle arrest in human MCF7 cells assessed as accumulation at G0/G1 phase at 10 uM after 24 hrs by propidium iodide-staining based FACS analysis (reference value: 71.1%). The test is classed as functional.
Test [14] deals with MCF7. The test can be described thus: Induction of apoptosis in human MCF7 cells assessed as increase in cleaved PARP-1 expression at 1 to 10 uM after 24 hrs by immunoblot method. Format: functional, cell-based.
Test [15] concerns MCF7. Description: Cell cycle arrest in human MCF7 cells assessed as accumulation at G2/M phase at 5 uM after 24 hrs by propidium iodide-staining based FACS analysis (reference value: 6.3%). The test is classed as functional.
The subject of test [16] is MCF7. Description: Cell cycle arrest in human MCF7 cells assessed as accumulation at S phase after 24 hrs by propidium iodide-staining based FACS analysis. Format: functional.
Test [17] concerns MCF7. Description: Cell cycle arrest in human MCF7 cells assessed as accumulation at S phase at 5 uM after 24 hrs by propidium iodide-staining based FACS analysis (reference value: 22.6%). Format: functional.

This passage reports IC50 and Activity results from ChEMBL document CHEMBL4020791, “Synthesis and anti-proliferative activity of a small library of 7-substituted 5H-pyrrole [1,2-a][3,1]benzoxazin-5-one derivatives” (Bioorg Med Chem Lett, 2017).

Molecules are shown by their SMILES. Activity calls are given as the source filed them. The calls are words filed in the database; no cut-off is given here.

The IC50 is the concentration at which inhibition is half-maximal. In the case of `O=c1oc2cccn2c2ccc(-c3ccccc3)cc12`, the IC50 was 66.5 µM in the test on MCF7 [1], 61 µM in the test on SK-BR-3 [2], 93.5 µM in the test on MDA-MB-231 [3] and 180 µM with MCF-10A.
Regarding `O=c1oc2cccn2c2ccccc12`, the result in the test with MDA-MB-231 [4], with SK-BR-3 [5] and in the test on MCF7 [6] was Active.
In the case of `O=c1oc2cccn2c2ccc(Br)cc12`, the IC50 in the test on MCF7 [1] was 123 µM; with SK-BR-3 [2] it was 126 µM; in the test on MDA-MB-231 [3], 217 µM; in the test on MCF-10A, 262 µM. The outcome in the test on MDA-MB-231 [4], in the test with SK-BR-3 [5] and in the test on MCF7 [6] was Active.
For `COC(=O)c1ccc(-c2ccc3c(c2)c(=O)oc2cccn23)cc1`, the 50% inhibitory concentration (IC50) with MCF7 [1] was found to be 48.7 µM; in the test with SK-BR-3 [2], 59.3 µM; in the test with MDA-MB-231 [3], 65 µM; with MCF-10A, 162 µM.
In the case of `O=c1oc2cccn2c2ccc(-c3cccnc3O)cc12`, the IC50 in the test on MCF7 [1] is 60.9 µM; with SK-BR-3 [2], 72 µM; in the test on MDA-MB-231 [3], 78.9 µM; in the test on MCF-10A, 154 µM.
In the same order, the values of `O=c1oc2cccn2c2ccc(-c3ccc(C(F)(F)F)nc3)cc12` are 43.1 µM, 46.8 µM, 73 µM and 155 µM.
For the compound `O=c1oc2cccn2c2ccc(-c3ccc(-c4ccccc4)cc3)cc12`, the IC50 in the test with MCF7 [1] was 9.03 µM; in the test on SK-BR-3 [2], 9.2 µM; in the test with MDA-MB-231 [3], 10 µM; with MCF-10A, over 250 µM. Further, the Activity is 18.8% in the test with MCF7 [7]; 76.6% with MCF7 [8]; 8.4% with MCF7 [9]; 72.8% in the test with MCF7 [13]; 7.8% in the test on MCF7 [15]; “Dose-dependent effect” in the test on MCF7 [16]. Besides, the Activity with MCF7 [17] is on record as 15.6%. For the same compound, the outcome in the test with MCF7 [10], with MCF7 [11], in the test with MCF7 [12] and with MCF7 [14] was Active.
`O=c1oc2cccn2c2ncccc12`: the result with MDA-MB-231 [4], in the test on SK-BR-3 [5] and in the test on MCF7 [6] was Active.
As to `COc1cccc2c1C(=O)c1c(O)c3c(c(O)c1C2=O)C[C@@](O)(C(=O)CO)C[C@@H]3O[C@H]1C[C@H](N)[C@H](O)[C@H](C)O1` [DOXORUBICIN], the IC50 with SK-BR-3 [2] is 8.48 µM; with MDA-MB-231 [3], 10 µM; with MCF-10A, 12.5 µM.
As to `O=c1oc2cccn2c2cc3ccccc3cc12`, the outcome with MDA-MB-231 [4], with SK-BR-3 [5] and in the test with MCF7 [6] was Active.
For the compound `O=c1oc2cccn2c2ccc(-c3ccc(O)cc3)cc12`, the IC50 with MCF7 [1] is 18.5 µM; in the test on SK-BR-3 [2] it was 27 µM; in the test on MDA-MB-231 [3], 31 µM; in the test on MCF-10A it was 79.8 µM.
